In publication PMC4501179, “Tuning properties and dynamic range of type 1 vomeronasal receptors” (Frontiers in Neuroscience, 2015):

Target: T1, V1rj3 (Mus musculus, UniProt Q2TBB9)
T1 sequence (Q2TBB9 1-308): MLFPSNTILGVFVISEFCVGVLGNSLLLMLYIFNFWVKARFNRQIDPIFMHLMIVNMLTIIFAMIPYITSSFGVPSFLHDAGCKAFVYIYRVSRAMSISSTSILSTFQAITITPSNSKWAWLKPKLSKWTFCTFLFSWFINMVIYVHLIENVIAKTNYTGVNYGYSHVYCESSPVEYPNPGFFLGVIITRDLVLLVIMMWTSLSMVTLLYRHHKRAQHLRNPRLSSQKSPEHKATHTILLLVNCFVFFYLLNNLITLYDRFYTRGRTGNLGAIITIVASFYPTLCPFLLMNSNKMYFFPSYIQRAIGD
Experiment: GCaMP2 calcium imaging of VNO slices from transgenic mice ectopically expressing V1rj3

Compound	GCaMP2 calcium imaging of VNO slices from transgenic mice ectopically expressing
C[C@]12CC[C@@H]3c4ccc(OS(=O)(=O)O)cc4CC[C@H]3[C@@H]1CC[C@@H]2O [E1100, 17β-estradiol 3-sulfate]	10^−5 M
C[C@]12CC[C@@H]3c4ccc(OS(=O)(=O)O)cc4CC[C@H]3[C@@H]1CC[C@@H]2OS(=O)(=O)O [E1050, 1, 3, 5(10)-estratrien-3, 17β-diol disulfate]	10^−10 M
C[C@]12CC[C@H]3[C@@H](CC=C4C[C@@H](OS(=O)(=O)O)CC[C@@]43C)[C@@H]1CC[C@@H]2OS(=O)(=O)O [A7864, 5-androsten-3β, 17β-diol-disulfate]	10^−5 M
C[C@]12CC[C@@H]3c4ccc(O)cc4CC[C@H]3[C@@H]1CC[C@@H]2OS(=O)(=O)O [E1103, 1,3, 5(10)-estratrien-3, 17β-diol 17-sulfate]	10^−10 M
